# Values quoted from earlier work, collected in US20260183243A1, “PHARMACEUTICAL COMPOSITIONS OF NOR-UDCA” (SHILPA MEDICARE LIMITED, priority 2022, published 2026).
# Details: background statement, no test described
smiles,measurement,value
"C[C@H](CC(=O)O)[C@H]1CC[C@H]2[C@@H]3[C@@H](O)C[C@@H]4C[C@H](O)CC[C@]4(C)[C@H]3CC[C@]12C [Nor-UDCA, 24-nor-ursodeoxycholic acid]",solubility in an aqueous medium,poorly soluble
